{
  "source": "patent US11919904B2",
  "about": "“Sulfonylamide compounds as CDK2 inhibitors” (Incyte Corporation, priority 2019, dated 2024)",
  "key": {"[1]": {"system": "Rb phosphorylation at S780 in CCNE1-non-amplified cell lines (COV504 and OV56)", "assay": "Western blot of Rb phosphorylation at S780 in CCNE1-non-amplified cell lines", "format": "cell-based, human", "conditions": "one or 15 hours after treatment, various doses", "experimental": "The effect of CDK4/6-inhibition on Rb phosphorylation at S780 in CCNE1-amplified versus CCNE1-non-amplified cell lines was evaluated. […] One or 15 hours after treatment, the cells were harvested and total protein was extracted and analyzed by western blot (FIG. 8).\nWhole cell extracts were prepared using RIPA buffer (Thermo Scientific, 89900) with a Halt Protease and Phosphatase Inhibitor Cocktail (Thermo Scientific, 78440). Protein concentration was quantified with a BCA Protein Assay Kit (Thermo Scientific, 23225) and 40 μg of protein lysates were loaded for SDS-PAGE using precast gradient gels (Bio-Rad, Hercules, No. 456-1094). Samples were diluted in 5×Laemmli buffer (300 mM Tris-HCl pH 6.8, 10% SDS (w/v), 5% 2-mercaptoethanol, 25% glycerol (v/v), 0.1% bromophenol blue w/v) and boiled for 5 minutes. […] of proteins were separated by 8-15% SDS-PAGE and transferred onto polyvinylidene fluoride (PVDF) membranes. Unspecific binding sites on the PVDF membranes were blocked with 5% non-fat milk in TBST (20 mM Tris-HCl, pH 7.6, 137 mM NaCl, 1% Tween-20). […] Images were captured by Luminescence/Fluorescence Imaging System Odyssey CLx Imager (LI-COR)."}, "[2]": {"system": "Rb phosphorylated on serine 780 in CCNE1 amplified COV318 cells", "assay": "CDK2 pRb (S780) HTRF cellular assay", "format": "cell-based", "conditions": "Homo sapiens, FIG. 10B", "experimental": "CDK2 pRb ([…]) HTRF cellular assay enables the quantitative detection of Rb phosphorylated on […] in CCNE1 amplified COV318 cells. The assay comprised two antibodies: Europium cryptate labeled anti-Phospho-Rb […] antibody (donor) and d2 labeled anti-Rb antibody (acceptor). […] The final concentrations of compounds start from 3 μM. […] After 2 h of incubation at room temperature, HTRF signals were measured on the PHERAstar microplate reader (BMG Labtech), using 340 nm as excitation wavelength, a 620 nm filter for the Europium donor fluorescence, and a 665-nm filter for the acceptor fluorescence detection. HTRF signals were calculated as the HTRF ratio (ratio of fluorescence measured at 665 nm and 620 nm)×10000."}, "[3]": {"system": "CCNE1-non-amplified cell lines (COV504, OV56, Igrov1)", "assay": "Cell cycle analysis by FACS in CCNE1-non-amplified cell lines", "format": "cell-based, human", "experimental": "(§1) The effect of CDK4/6-inhibition in CCNE1-amplified versus CCNE1-non-amplified cell lines was evaluated.\n(§2) A similar experiment was performed in a larger set of CCNE1-amplified cell lines (COV318 and OVCAR3) and CCNE1-non-amplified cell lines (COV504, OV56, and Igrov1) (FIG. 6).\n(§3) Bulk DNA was stained with DAPI. Compound-treated and DMSO treated control cells were acquired with CytoFlex (Beckman Coulter) and were analyzed using the FlowJo software. For cell cycle analysis of cells with siRNA knockdown, 72 hours after siRNA transfection, cells exposed to 10 μM EdU for 3 hours before detection of Click-iT Alexa Fluor® 647 azide kit."}, "[4]": {"system": "CCNE1-amplified cell lines (COV318, OVCAR3)", "assay": "Cell cycle analysis by FACS in CCNE1-amplified cell lines", "format": "cell-based, human", "conditions": "COV318 and OVCAR3; 16 hours after treatment; compared to DMSO", "experimental": "as §1, §2, §3"}},
  "data": [
    {"compound": "CC(=O)c1c(C)c2cnc(Nc3ccc(N4CCNCC4)cn3)nc2n(C2CCCC2)c1=O", "note": "[palbociclib]", "values": [
      {"measurement": "Rb phosphorylation at S780", "setting": "[1]", "value": "blocked Rb phosphorylation at S780"},
      {"measurement": "IC50", "setting": "[2]", "value": "> 3000", "unit": "nM"},
      {"measurement": "percentage of cells at the S phase", "setting": "[3]; COV504, OV56, Igrov1, 16 hours after treatment, compared to DMSO", "value": "decreased in CCNE1-non-amplified cell lines in a dose-dependent fashion"},
      {"measurement": "proliferation (cell cycle analysis by FACS)", "setting": "[3]; COV504 cells, sixteen hours after treatment, increasing concentrations", "value": "dose-dependent inhibition of the proliferation"},
      {"measurement": "percentage of cells at the S phase", "setting": "[4]", "value": "not significantly different"}
    ]}
  ]
}
